Results on 15 molecules are retold here after paper PMC11643516, “Design, Synthesis, Structural Insights, Tyrosinase Inhibition, and Sun Protection Factor of New Thiosemicarbazone Derivatives” (Molecules, 2024).

The target in one data set is Tyrosinase. The note with it: L-DOPA as substrate, read-out: Tyrosinase Inhibitory Activity IC50, cited from earlier work.
The next data set deals with B16 melanoma cells. Details: method as in PMID 20863702. The note with it: read-out: Anti-Melanogenesis Activity IC50; cited from earlier work.
Another data set deals with mushroom tyrosinase. The data set is described as follows: Mushroom tyrosinase inhibition assay (L-DOPA, dopachrome formation at 492 nm). It is filed as biochemical. The note with it: L-DOPA substrate, pH 6.8, 37 °C; mean ± SD of triplicate experiments; read-out: IC50 against mushroom tyrosinase activity. The method, then:
Mushroom Tyr inhibition was assessed as described previously with minor modifications. […] L-DOPA was then added and the dopachrome formation was monitored at 492 nm. The measurements were taken using a FLUOstar OPTIMA (BMG Labtech, Offenburg, Germany). The IC50 value was determined by analysing dose–response curves.

A short description of data set [1]: ABTS radical scavenging assay. As to conditions: 734 nm after 1 min of incubation; mean ± SD of triplicate. The method, then: Samples of each compound (10 µL) were added to 990 µL of ABTS, and the reduction in the blue-green radical ABTS^+• by hydrogen-donating antioxidants was evaluated by measuring the absorbance at 734 nm after 1 min of incubation. All the measurements were carried out at least three times.

Data set [2] in a line: DPPH radical scavenging assay. The note with it: 0.1 mM DPPH, 30 min in the dark, 517 nm; mean ± SD of triplicate. Here is the method:
Radical scavenging activity of the thiosemicarbazone derivatives was estimated according to the previously reported method with slight modification using the stable DPPH radical. A solution of 0.1 mM DPPH radical was added to various concentrations of the compounds. The absorbance of the DPPH radical without an antioxidant, i.e., blank, was also measured. The mixture was shaken vigorously and kept at room temperature for 30 min in the dark. The absorbance of the reaction mixture was measured at 517 nm spectrophotometrically. All the determinations were performed in triplicate.
In general terms: DPPH is a stable violet radical that fades when it is reduced.

Structures can show the parent of a compound that is named as a salt. Where two headings read alike, the source gives them in different places.

For orientation: melting point means the temperature of the solid-liquid transition. As for `NC(=S)N/N=C/c1ccc(OS(=O)(=O)c2ccccc2)cc1` (as salt: benzenesulfonate) [TCBS1, (E)-4-((2-carbamothioylhydrazineylidene)methyl)phenyl benzenesulfonate], the melting point lay in the range of 159 to 160 °C.
The molecule `NC(=S)N/N=C/c1ccc(OS(=O)(=O)c2ccc([N+](=O)[O-])cc2)cc1` (as salt: benzenesulfonate) [TCBS2, (E)-4-((2-carbamothioylhydrazineylidene)methyl)phenyl 4-nitrolbenzenesulfonate] had a melting point of 226 to 228 °C.
As to `NC(=S)N/N=C/c1ccc(OS(=O)(=O)c2ccc(Cl)cc2)cc1` (as salt: benzenesulfonate) [TCBS5, (E)-4-((2-carbamothioylhydrazineylidene)methyl)phenyl 4-chlorobenzenesulfonate], the melting point lay in the range of 194 to 196 °C.
The IC50 is the concentration that inhibits the measured activity by half. For `NC(=S)N/N=C/c1ccc(Cl)cc1` [Compound 1], the IC50 at Tyrosinase (ref 17) was 840 nM; on Tyrosinase (ref 18), 1900 nM.
For `COc1ccc(/C=N/NC(N)=S)cc1` [Compound 2], the concentration for half-maximal inhibition (IC50) was 440 nM at Tyrosinase (ref 17) and 1480 nM on Tyrosinase (ref 20).
As to `NC(=S)N/N=C/c1ccc([N+](=O)[O-])cc1` [Compound 3], the 50% inhibitory concentration (IC50) on Tyrosinase (ref 19) was 1900 nM.
As for `NC(=S)N/N=C/c1ccccc1` [Compound 4], the half-inhibitory concentration (IC50) in the data set with B16 melanoma cells was greater than 10000 nM.
On to `NC(=S)N/N=C/c1cccc2ccccc12` [Compound 5], for which the IC50 with B16 melanoma cells is 1100 nM.
As for `NC(=S)N/N=C/c1ccncc1` [Compound 6], the half-maximal inhibitory concentration (IC50) in the data set with B16 melanoma cells was greater than 30000 nM.
In the case of `NC(=S)N/N=C/c1ccc(OS(=O)(=O)c2ccccc2)cc1` [TCBS1, (E)-4-((2-carbamothioylhydrazineylidene)methyl)phenyl benzenesulfonate], the 50% inhibitory concentration (IC50) on mushroom tyrosinase was determined as 440 ± 30 nM. Further, the “ABTS (% I ± SD), percentage of inhibition of free radicals” value in data set [1] worked out at 39 ± 1%. Further, the “DPPH (% I ± SD), percentage of inhibition of free radicals” value in data set [2] is reported as 26 ± 2%.
For the molecule `NC(=S)N/N=C/c1ccc(OS(=O)(=O)c2ccc([N+](=O)[O-])cc2)cc1` [TCBS2, (E)-4-((2-carbamothioylhydrazineylidene)methyl)phenyl 4-nitrolbenzenesulfonate], the half-maximal inhibitory concentration (IC50) at mushroom tyrosinase was found to be 660 ± 50 nM. Moreover, the “ABTS (% I ± SD), percentage of inhibition of free radicals” value in data set [1] stood at 25 ± 4%. Moreover, the “DPPH (% I ± SD), percentage of inhibition of free radicals” value in data set [2] is given as 16 ± 2%.
Take `COc1ccc(S(=O)(=O)Oc2ccc(/C=N/NC(N)=S)cc2)cc1` [TCBS3, (E)-4-((2-carbamothioylhydrazineylidene)methyl)phenyl 4-methoxylbenzenesulfonate]: the melting point was in the range of 154 to 156 °C. The IC50 at mushroom tyrosinase is 440 ± 10 nM. In data set [1], the “ABTS (% I ± SD), percentage of inhibition of free radicals” value turned out to be 35 ± 1%. In addition, the “DPPH (% I ± SD), percentage of inhibition of free radicals” value in data set [2] was determined as 33 ± 4%.
The molecule `Cc1ccc(S(=O)(=O)Oc2ccc(/C=N/NC(N)=S)cc2)cc1` [TCBS4, (E)-4-((2-carbamothioylhydrazineylidene)methyl)phenyl 4-methylbenzenesulfonate] came in with a melting point of 195 to 197 °C. Further, the IC50 on mushroom tyrosinase was determined as 440 ± 10 nM. For the same molecule, the “ABTS (% I ± SD), percentage of inhibition of free radicals” value in data set [1] is listed as 30 ± 2%. The “DPPH (% I ± SD), percentage of inhibition of free radicals” value in data set [2] was 20 ± 1%.
On to `NC(=S)N/N=C/c1ccc(OS(=O)(=O)c2ccc(Cl)cc2)cc1` [TCBS5, (E)-4-((2-carbamothioylhydrazineylidene)methyl)phenyl 4-chlorobenzenesulfonate], for which the IC50 at mushroom tyrosinase is 710 ± 20 nM. The “ABTS (% I ± SD), percentage of inhibition of free radicals” value in data set [1] worked out at 22 ± 2%. For the same molecule, the “DPPH (% I ± SD), percentage of inhibition of free radicals” value in data set [2] came out at 32 ± 5%.
The molecule `CS(=O)(=O)Oc1ccc(/C=N/NC(N)=S)cc1` [TCMS1, (E)-4-((2-carbamothioylhydrazineylidene)methyl)phenyl methanesulfonate] showed a melting point of 224 to 226 °C. In addition, the IC50 at mushroom tyrosinase was determined as 1600 ± 20 nM. Besides, in data set [1], the “ABTS (% I ± SD), percentage of inhibition of free radicals” value is 42 ± 4%. For the same molecule, in data set [2], the “DPPH (% I ± SD), percentage of inhibition of free radicals” value is reported as 20 ± 2%.
